From US20140011700A1 (Bristol-Myers Squibb Company, published 2014)

What was measured:
Type in all cases: cell-based, Influenza A
[1] = tested on: A/WSN/33 Y52H
[2] = tested on: A/WSN/33 Y289H
[3] = tested on: A/WSN/33 N309T
[4] = tested on: A/WSN/33 N309K

## COc1ccccc1-c1noc(C)c1C(=O)N1CCN(c2ccc([N+](=O)[O-])cc2Cl)CC1 [Compound B]
[1]
  EC50: 8.15 µM
[2]
  EC50: > 20 µM
[3]
  EC50: 3.5 µM
[4]
  EC50: > 20 µM

## Cc1cc(Br)cnc1N1CCN(C(=O)c2c(-c3ccccc3Cl)noc2C)CC1 [Compound D]
[1]
  EC50: > 20 µM
[2]
  EC50: > 20 µM
[3]
  EC50: > 20 µM
[4]
  EC50: > 20 µM
